Experimental data from patent US20160198705A1, “APPLICATION OF BISPHENOL SALT IN PREPARING DISINFECTANT USED FOR STERILIZATION OR FORMALDEHYDE REMOVAL” (NINGBO YUCHEN ENVIROCLEAN TECH CO., LTD., priority 2013, published 2016).

Key:
[1] = test system: Staphylococcus aureus; assay: Kirby-Bauer diffusion detection of sterilization capability (zone without bacterial growth around the filter paper); type: cell-based; conditions: for sterilization effect without oxygen ventilation (diameter, mm): pH 10, no ventilation of oxygen
[2] = test system: Staphylococcus aureus; assay: as above; type: cell-based
Protocol: In catalyst screening, Staphylococcus aureus was used as the microorganisms, and a trypsin soybean agar was used as a culture medium. The material powder to be screened was prepared into a homogeneous mixture solution by pure water in a 5% weight/volume ratio (i.e., 5 g powder/100 mL water) (in rare cases of low solubility, firstly dissolved with a small amount of glycerol, then diluted with pure water), then immersed with a neutral precise filtration filter paper of 5 mm diameter for about 10 seconds, then placed into a Kirby-Bauer diffusion detection plate. A Kirby-Bauer diffusion detection plate was placed in a sealed glass cover, and the air was provided into the glass cover at a speed of about 10 liters per minute. The sterilizing capability of the catalyst was measured by the diameter of the zone without bacterial growth around the filter paper.
A variety of bisphenol salts were respectively prepared into a water solution with a mass concentration being 5%, and the pH was controlled to 10. The sterilization capability was still detected by Kirby-Bauer diffusion detection method in which Staphylococcus aureus was […] used as the microorganisms, respectively including two cases of no ventilation of oxygen and ventilation of oxygen. When oxygen was ventilated, the condition for oxygen ventilation was the same, the temperature was room temperature (25[…]) and 37[…].
The sterilization capability was detected by Kirby-Bauer diffusion detection method in which Staphylococcus aureus was still used as the microorganisms, and the condition for oxygen ventilation was identical, the temperature was room temperature (25[…]) and 37[…].
Ortho-bisphenol potassium was respectively prepared to form water solutions with a concentration of 5% and pH value of 6, 7, 8, 8.5, 9, 9.5, 10, 10.5, 11, 11.5, 12. The sterilization capability was detected by Kirby-Bauer diffusion detection method in which Staphylococcus aureus was still used as the microorganisms, the condition for oxygen ventilation was identical, the temperature was room temperature (25[…]) and 37[…].

[3] = 5% water solution, pH 10, oxygen ventilation
[4] = 5% weight/volume in pure water, air provided at about 10 liters per minute
[5] = concentration 1.0%, pH 10, oxygen ventilation
[6] = concentration 5%, pH 10, oxygen ventilation
[7] = concentration 10%, pH 10, oxygen ventilation
[8] = pH 6, concentration 5%, oxygen ventilation
[9] = pH 8.5, concentration 5%, oxygen ventilation
[10] = pH 9, concentration 5%, oxygen ventilation
[11] = pH 10, concentration 5%, oxygen ventilation
[12] = concentration 0.5%, pH 10, oxygen ventilation
[13] = concentration 2.0%, pH 10, oxygen ventilation
[14] = concentration 15%, pH 10, oxygen ventilation
[15] = concentration 20%, pH 10, oxygen ventilation
[16] = pH 7, concentration 5%, oxygen ventilation
[17] = pH 8, concentration 5%, oxygen ventilation
[18] = pH 9.5, concentration 5%, oxygen ventilation
[19] = pH 10.5, concentration 5%, oxygen ventilation
[20] = pH 11, concentration 5%, oxygen ventilation
[21] = pH 11.5, concentration 5%, oxygen ventilation
[22] = pH 12, concentration 5%, oxygen ventilation

[K+].[K+].[O-]c1ccccc1-c1cc(Cl)ccc1[O-]
sterilization effect without oxygen ventilation (diameter, mm) ([1]; 5% water solution): 3 mm
sterilization effect at 25[…] (diameter, mm) [1, 3]: 19 mm
sterilization effect at 37[…] (diameter, mm) [1, 3]: 19 mm

[Cl-].[Na+] [sodium chloride, reference compound]
sterilization effect [1, 4]: essentially had no effect

O=C(O)c1ccc(-c2ccccc2[O-])c([O-])c1.[K+].[K+]
sterilization effect without oxygen ventilation (diameter, mm) ([1]; 5% water solution): 2 mm
sterilization effect at 25[…] (diameter, mm) [1, 3]: 19 mm
sterilization effect at 37[…] (diameter, mm) [1, 3]: 19 mm

[Na+].[Na+].[O-]c1ccccc1Oc1ccccc1[O-]
sterilization effect without oxygen ventilation (diameter, mm) ([1]; 5% water solution): 5 mm
sterilization effect at 25[…] (diameter, mm) [1, 3]: 17 mm
sterilization effect at 37[…] (diameter, mm) [1, 3]: 19 mm

[K+].[K+].[O-]c1cccc(-c2cccc([O-])c2)c1
sterilization effect without oxygen ventilation (diameter, mm) ([1]; 5% water solution): 2 mm
sterilization effect at 25[…] (diameter, mm) [1, 3]: 20 mm
sterilization effect at 37[…] (diameter, mm) [1, 3]: 19 mm

[Na+].[Na+].[O-]c1ccccc1-c1ccccc1[O-] [2,2′-ortho-bisphenol sodium]
inhibition zone diameter [1, 4]: 15 mm

[K+].[K+].[O-]c1ccccc1-c1ccccc1[O-] [ortho-bisphenol potassium]
sterilization effect at 25[…] (diameter, mm) [2, 5]: 11 mm
sterilization effect at 37[…] (diameter, mm) [2, 6]: 19 mm
sterilization effect at 25[…] (diameter, mm) [2, 7]: 20 mm
sterilization effect at 25[…] (diameter, mm) [2, 8]: 5 mm
sterilization effect at 37[…] (diameter, mm) [2, 9]: 14 mm
sterilization effect at 25[…] (diameter, mm) [2, 10]: 15 mm
sterilization effect at 25[…] (diameter, mm) [2, 11]: 19 mm
sterilization effect at 37[…] (diameter, mm) [2, 11]: 20 mm
sterilization effect without oxygen ventilation (diameter, mm) ([1]; 5% water solution): 3 mm
sterilization effect at 25[…] (diameter, mm) [1, 3]: 18 mm
sterilization effect at 37[…] (diameter, mm) [1, 3]: 19 mm
sterilization effect at 25[…] (diameter, mm) [1, 12]: 8 mm
sterilization effect at 37[…] (diameter, mm) [1, 12]: 9 mm
sterilization effect at 37[…] (diameter, mm) [1, 5]: 10 mm
sterilization effect at 25[…] (diameter, mm) [1, 13]: 14 mm
sterilization effect at 37[…] (diameter, mm) [1, 13]: 16 mm
sterilization effect at 25[…] (diameter, mm) [1, 6]: 18 mm
sterilization effect at 37[…] (diameter, mm) [1, 7]: 20 mm
sterilization effect at 25[…] (diameter, mm) [1, 14]: 19 mm
sterilization effect at 37[…] (diameter, mm) [1, 14]: 18 mm
sterilization effect at 25[…] (diameter, mm) [1, 15]: 17 mm
sterilization effect at 37[…] (diameter, mm) [1, 15]: 19 mm
sterilization effect at 37[…] (diameter, mm) [1, 8]: 5 mm
sterilization effect at 25[…] (diameter, mm) [1, 16]: 5 mm
sterilization effect at 37[…] (diameter, mm) [1, 16]: 6 mm
sterilization effect at 25[…] (diameter, mm) [1, 17]: 8 mm
sterilization effect at 37[…] (diameter, mm) [1, 17]: 9 mm
sterilization effect at 25[…] (diameter, mm) [1, 9]: 13 mm
sterilization effect at 37[…] (diameter, mm) [1, 10]: 16 mm
sterilization effect at 25[…] (diameter, mm) [1, 18]: 16 mm
sterilization effect at 37[…] (diameter, mm) [1, 18]: 16 mm
sterilization effect at 25[…] (diameter, mm) [1, 19]: 18 mm
sterilization effect at 37[…] (diameter, mm) [1, 19]: 20 mm
sterilization effect at 25[…] (diameter, mm) [1, 20]: 18 mm
sterilization effect at 37[…] (diameter, mm) [1, 20]: 19 mm
sterilization effect at 25[…] (diameter, mm) [1, 21]: 20 mm
sterilization effect at 37[…] (diameter, mm) [1, 21]: 19 mm
sterilization effect at 25[…] (diameter, mm) [1, 22]: 20 mm
sterilization effect at 37[…] (diameter, mm) [1, 22]: 20 mm

[K+].[K+].[O-]c1cccc(Oc2cccc([O-])c2)c1
sterilization effect without oxygen ventilation (diameter, mm) ([1]; 5% water solution): 6 mm
sterilization effect at 25[…] (diameter, mm) [1, 3]: 16 mm
sterilization effect at 37[…] (diameter, mm) [1, 3]: 18 mm

O=S(=O)([O-])[O-].[Na+].[Na+] [sulfate sodium, reference compound]
sterilization effect [1, 4]: essentially had no effect
